Test results as given in patent publication US7858647B2, “N-[1,3,4]-thiadiazol-2-yl-benzene sulfonamides, pharmaceutical compositions thereof and methods for their therapeutic use” (Sanofi-Aventis, priority 2005, dated 2010).
pEC50: −log10 of the molar value.

Biological target: T1, human PPARgamma (Homo sapiens, UniProt P37231)
T1 construct: amino acids I152-Y475; expressed in transfected cells; host or cells: HEK cells (transient transfection of pcDNA3-GAL4-humanPPARgammaLBD)
T1 sequence (P37231 182-477 isoform P37231-2 limits assumed): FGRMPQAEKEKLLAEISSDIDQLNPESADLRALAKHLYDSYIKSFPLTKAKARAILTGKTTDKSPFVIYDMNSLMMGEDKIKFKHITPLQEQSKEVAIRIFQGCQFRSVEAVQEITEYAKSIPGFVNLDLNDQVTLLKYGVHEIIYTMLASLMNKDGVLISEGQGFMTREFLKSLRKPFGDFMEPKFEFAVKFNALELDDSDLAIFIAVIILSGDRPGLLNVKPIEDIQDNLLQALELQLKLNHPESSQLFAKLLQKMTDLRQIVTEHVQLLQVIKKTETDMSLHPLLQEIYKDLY
Experiment: Cellular PPARgamma assay (luciferase reporter, transiently transfected HEK cells)
Type: cell-based
Conditions: GAL4-humanPPARgammaLBD
Source text: A transient transfection system is employed to determine the cellular PPARgamma activity of PPAR agonists. It is based on the use of a luciferase reporter plasmid (pGL3basic-5×GAL4-TK) and of a PPARgamma expression plasmid (pcDNA3-GAL4-humanPPARgammaLBD). Both plasmids are transiently transfected into human embryonic kidney cells (HEK cells). There is then expression in these cells of the fusion protein GAL4-humanPPARgammaLBD which binds to the GAL4 binding sites of the reporter plasmid. In the presence of a PPARgamma-active ligand, the activated fusion protein GAL4-humanPPARgammaLBD induces expression of the luciferase reporter gene, which can be detected in the form of a chemiluminescence signal after addition of a luciferase substrate. As a difference from the stably transfected PPARalpha reporter cell line, in the cellular PPARgamma assay the two components (luciferase reporter plasmid and PPARgamma expression plasmid) are transiently transfected into HEK cells because stable and permanent expression of the PPARgamma fusion protein is cytotoxic.
The luciferase reporter plasmid pGL3basic-5×GAL4-TK is based on the vector pGL3basic from Promega. The reporter plasmid is prepared by cloning five binding sites of the yeast transcription factor GAL4 (each binding site with the sequence 5′-CTCGGAGGACAGTACTCCG-3′), together with a 160 bp-long thymidine kinase promoter section (Genbank Accession #AF027128) 5′-upstream into pGL3basic. 3′-downstream of the thymidine kinase promoter is the complete luciferase gene from Photinus pyralis (Genbank Accession #M15077) which is already a constituent of the plasmid pGL3basic used. The cloning and sequencing of the reporter plasmid pGL3basic-5×GAL4-TK took place in analogy to the description in Sambrook J. et. al. (Molecular cloning, Cold Spring Harbor Laboratory Press, 1989).
The PPARgamma expression plasmid pcDNA3-GAL4-humanPPARgammaLBD was prepared by first cloning the cDNA coding for amino acids 1-147 of the yeast transcription factor GAL4 (Genbank Accession #P04386) into the plasmid pcDNA3 (from Invitrogen) 3′-downstream of the cytomegalovirus promoter. Subsequently, the cDNA of the ligand-binding domain (LBD) of the human PPARgamma receptor (amino acids I152-Y475; Accession #g1480099) 3′-downstream of the GAL4 DNA binding domain. Cloning and sequencing of the PPARgamma expression plasmid pcDNA3-GAL4-humanPPARgammaLBD again took place in analogy to the description in Sambrook J. et. al. (Molecular cloning, Cold Spring Harbor Laboratory Press, 1989). Besides the luciferase reporter plasmid pGL3basic-5×GAL4-TK and the PPARgamma expression plasmid pcDNA3-GAL4-humanPPARgammaLBD, also used for the cellular PPARgamma assay are the reference plasmid pRL-CMV (from Promega) and the plasmid pBluescript SK(+) from Stratagene. All four plasmids were prepared using a plasmid preparation kit from Qiagen, which ensured a plasmid quality with a minimal endotoxin content, before transfection into HEK cells.
The activity of PPARgamma agonists is determined in a 4-day assay which is described below. Before the transfection, HEK cells are cultivated in DMEM (#41965-039, Invitrogen) which is mixed with the following additions: 10% FCS (#16000-044, Invitrogen), 1% penicillin-streptomycin solution (#15140-122, Invitrogen) and 2 mM L-glutamine (#25030-024, Invitrogen).
Firstly, solution A, a transfection mixture which contains all four plasmids previously described in addition to DMEM, is prepared. The following amounts are used to make up 3 ml of solution A for each 96 well microtiter plate for an assay: 2622 μl of antibiotic- and serum-free DMEM (#41965-039, Invitrogen), 100 μl of reference plasmid pRL-CMV (1 ng/μl), 100 μl of luciferase reporter plasmid pGL3basic-5×GAL4-TK (10 ng/μl), 100 μl of PPARgamma expression plasmid pcDNA3-GAL4-humanPPARgammaLBD (100 ng/μl) and 78 μl of plasmid pBluescript SK(+) (500 ng/μl). […]

Row | SMILES | pEC50
1 | COc1ccc(C(=O)NCCc2ccc(S(=O)(=O)Nc3nnc(C(C)C)s3)cc2)c(OC)n1 [Example 5, N-{2-[4-(5-Isopropyl-[1,3,4]thiadiazol-2-ylsulfamoyl)-phenyl]-ethyl}-2,6-dimethoxy-nicotinamide] | 5.95
2 | Cc1cc(Br)c(C(=O)NCCc2ccc(S(=O)(=O)Nc3nnc(C(C)C)s3)cc2)s1 [Example 47, 3-Bromo-5-methyl-thiophene-2-carboxylic acid {2-[4-(5-isopropyl-[1,3,4]thiadiazol-2-ylsulfamoyl)-phenyl]-ethyl}-amide] | 5.73
3 | COc1ccc(C(C)(C)C)cc1C(=O)NCCc1ccc(S(=O)(=O)Nc2nnc(C(C)C)s2)cc1 [Example 2, 5-tert-Butyl-N-{2-[4-(5-isopropyl-[1,3,4]thiadiazol-2-ylsulfamoyl)-phenyl]-ethyl}-2-methoxy-benzamide] | 6.74
4 | CC(C)c1nnc(NS(=O)(=O)c2ccc(CNC(=O)c3ccc(C(F)(F)F)cc3)cc2)s1 [Example 24, N-[4-(5-Isopropyl-[1,3,4]thiadiazol-2-ylsulfamoyl)-benzyl]-4-trifluoromethyl-benzamide] | 5.82
5 | CCOc1cc(C(F)(F)F)ccc1C(=O)NCC(C)c1ccc(S(=O)(=O)Nc2nnc(C(C)C)s2)cc1 (racemic) [Example 43, 2-Ethoxy-N-{2-[4-(5-isopropyl-[1,3,4]thiadiazol-2-ylsulfamoyl)-phenyl]-propyl}-4-trifluoromethyl-benzamide] | 7.05
6 | Cc1ccc(Cl)cc1C(=O)NCCc1ccc(S(=O)(=O)Nc2nnc(-c3ccccc3)s2)cc1 [Example 32, 5-Chloro-2-methyl-N-{2-[4-(5-phenyl-[1,3,4]thiadiazol-2-ylsulfamoyl)-phenyl]-ethyl}-benzamide] | 5.31
7 | CC(C)(C)c1nnc(NS(=O)(=O)c2ccc(CCNC(=O)c3cc(Cl)ccc3Cl)cc2)s1 [Example 35, N-{2-[4-(5-tert-Butyl-[1,3,4]thiadiazol-2-ylsulfamoyl)-phenyl]-ethyl}-2,5-dichloro-benzamide] | 6.57
8 | COc1cc(C(F)(F)F)ccc1C(=O)NCCc1ccc(S(=O)(=O)Nc2nnc(C(C)C)s2)cc1 [Example 1, N-{2-[4-(5-Isopropyl-[1,3,4]thiadiazol-2-ylsulfamoyl)-phenyl]-ethyl}-2-methoxy-4-trifluoromethyl-benzamide] | 6.42

More lines, now with the values ahead:

Row | pEC50 | SMILES
9 | 7.15 | CCOc1cc(C(F)(F)F)ccc1C(=O)NCC(C)c1ccc(S(=O)(=O)Nc2nnc(C(C)C)s2)cc1 (single isomer, unassigned) [Example 43a]
10 | 7.15 | CCOc1cc(C(F)(F)F)ccc1C(=O)NCC(C)c1ccc(S(=O)(=O)Nc2nnc(C(C)C)s2)cc1 (single isomer, unassigned) [Example 43b]
11 | 8.00 | CCOc1cc(C(F)(F)F)ccc1C(=O)NCC(CC)c1ccc(S(=O)(=O)Nc2nnc(C(C)C)s2)cc1 (single isomer, unassigned) [Example 44b]
12 | 7.52 | CCOc1cc(C(F)(F)F)ccc1C(=O)NCC(CC)c1ccc(S(=O)(=O)Nc2nnc(C(C)C)s2)cc1 (single isomer, unassigned) [Example 44a]
